In US8420642B2, “Pyridine derivatives useful as glucokinase activators” (Merck Patent GmbH, priority 2007, dated 2013):

What was measured:
[1] = biological target: T1, glucokinase (GK), human enzyme (Homo sapiens, UniProt P35557); test: Glucokinase Activation Screening Assay (coupled enzyme assay with PK/LDH, NADH decline at 340 nm); assay type: biochemical; conditions: for fold activation (human): relative to control incubation with 2 mM glucose; for EC50: 2 mM glucose
T1 sequence (P35557 1-465): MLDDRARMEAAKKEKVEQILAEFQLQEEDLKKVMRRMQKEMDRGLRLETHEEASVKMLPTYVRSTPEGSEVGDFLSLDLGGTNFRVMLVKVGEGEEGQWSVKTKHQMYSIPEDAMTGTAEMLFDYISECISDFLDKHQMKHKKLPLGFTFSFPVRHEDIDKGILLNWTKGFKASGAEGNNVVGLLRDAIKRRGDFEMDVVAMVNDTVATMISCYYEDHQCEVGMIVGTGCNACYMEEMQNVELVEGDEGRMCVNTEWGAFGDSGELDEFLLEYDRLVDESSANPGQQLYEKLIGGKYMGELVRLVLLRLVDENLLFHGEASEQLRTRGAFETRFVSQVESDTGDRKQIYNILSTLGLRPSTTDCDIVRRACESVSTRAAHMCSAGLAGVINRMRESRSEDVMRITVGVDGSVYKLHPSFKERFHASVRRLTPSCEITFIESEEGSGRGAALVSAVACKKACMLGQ
Procedure: Glucokinase Activation Screening Assay
GK activity (human or rat enzyme) is measured by an coupled enzyme assay using pyruvate kinase (PK) and lactate dehydrogenase (LDH) as coupling enzymes. GK activity is calculated from the decline in NADH monitored photometrically with a microtiter plate (MTP) reader at 340 nm. For screening purposes, the GK assay is routinely run in a 384-MTP format, in a total volume of 33 μl/well. 10 μl of the ATP-regeneration solution (in HEPES-buffer*, pH 7.0, 6.73 U/ml pyruvate kinase, 6.8 U/ml lactate dehydrogenase) and 10 μl of the glucokinase-/glucose solution (15 μg/ml, 6.6 mM glucose in HEPES-buffer*, pH 7.0; the concentration of the glucose stock-solution was 660 mM in Millipore H2O) were mixed together with 3 μl of a 10% DMSO solution (in HEPES-buffer*, pH 7.0) containing 3.3-fold the amounts of the compounds to achieve final compound concentrations in the range between 1 nM to 30 μM (sometimes 300 μM) in the assay solution (s. below). The solutions were mixed for 5 sec, and after a centrifugation at 243×g for 5 min, the solutions were preincubated for 25 min at room temperature.
The reaction was started by the addition of 10 μl of the NADH-/ATP-solution (4.29 mM NADH, 4.95 mM ATP, in HEPES-buffer*). The MTP was shaken for 5 sec., and then, the absorbance at 340 nm was monitored continuously in a MTP-reader (TECAN Spectro fluor plus) for the next 27 min (with a MTP-cycling time of 199 sec.). The final concentrations of the various components were as follows: 49.5 mM Hepes, pH 7.0, 1.49 mM PEP, 1.3 mM NADH, 49.5 mM KCl, 4.96 mM MgCl2, 1.5 mM Mg-ATP, 1.98 mM DTT, 2.04 U/ml pyruvate kinase, 2.06 U/ml lactate-dehydrogenase, 0.91% DMSO, 0.15 μg/well glucokinase, and test compounds in the range between 1 nM and 300 μM.
The change in the optical density (ΔOD340 nm) in the presence of the compound was expressed relative to the ΔOD340 nm, ctrl of the control incubation (in the presence of 2 mM glucose and 0.91% DMSO), taking into account the optical density of the blank sample (incubation in the absence of 2 mM glucose). For the determination of the half maximal effective concentration (EC50), the %−Ctrl-values were plotted in a semi-logarithmic graph against the conc. of the compound of interest. The data points were fitted to a sigmoid curve function (f(x)=((%−Ctrlmax%−Ctrlmin)/(1−(EC50/x**^n(Hill)))+%−Ctrlmin)) by a non-linear regression analysis.
* Hepes-buffer (50 mM Hepes, pH 7.0, 5 mM MgCl2, 50 mM KCl, 1.5 mM PEP, 0.1% BSA). DTT was added to the Hepes-buffer from a 200× stock solution (in Millipore H2O) freshly each day. The final concentration of DTT in the Hepes-buffer is 2 mM.

Row | melting point [°C] | fold activation (human) [1] | EC50 [1] [µM] | SMILES
1 | 241.5 to 242.6 | D (fold activation: 1.2-5 μM = D) | – | Cc1csc(Nc2ccc(Br)cn2)n1 [A1, (5-bromo-pyridine-2-yl)-(4-methyl-thiazole-2-yl)-amine]
2 | – | D (fold activation: 1.2-5 μM = D) | 1 to 10 | BrCc1csc(Nc2ccc(Br)cn2)n1 [A2, (4-bromomethyl-thiazole-2-yl)-(5-bromo-pyridine-2-yl)-amine]
3 | – | D (fold activation: 1.2-5 μM = D) | 1 to 10 | Brc1ccc(Nc2nc(Cn3ccnc3)cs2)nc1 [A3, (5-bromo-pyridine-2-yl)-(4-imidazole-1-ylmethyl-thiazole-2-yl)-amine]
4 | 299.8 to 300.8 | D (fold activation: 1.2-5 μM = D) | – | CCOC(=O)c1csc(Nc2ccc(Br)cn2)n1 [A4, 2-(5-bromo-pyridine-2-ylamino)-thiazole-4-carboxylic acid ethyl ester]
5 | 200.9 to 201.6 | D (fold activation: 1.2-5 μM = D) | 1 to 10 | CC(=O)OCc1csc(Nc2ccc(Br)cn2)n1 [A5, acetic acid 2-(5-bromo-pyridine-2-ylamino)-thiazole-4-ylmethyl ester]
6 | 207 to 209 | D (fold activation: 1.2-5 μM = D) | – | OCc1csc(Nc2ccc(Br)cn2)n1 [A6, [2-(5-bromo-pyridine-2-ylamino)-thiazole-4-yl]-methanol]
7 | – | D (fold activation: 1.2-5 μM = D) | > 10 | NCCSCc1csc(Nc2ccc(Br)cn2)n1 [A7, [4-(2-amino-ethylsulfanylmethyl)-thiazole-2-yl]-(5-bromopyridine-2-yl)-amine]
8 | 161.4 to 162.4 | D (fold activation: 1.2-5 μM = D) | > 10 | c1ccc(Oc2ccc(Nc3nccs3)nc2)cc1 [A8, (5-phenoxy-pyridine-2-yl)-thiazole-2-yl-amine]
9 | 158.5 to 160.5 | D (fold activation: 1.2-5 μM = D) | > 10 | CC(=O)OCc1csc(Nc2ccc(Oc3ccccc3)cn2)n1 [A9, acetic acid 2-(5-phenoxy-pyridine-2-ylamino)-thiazole-4-ylmethyl ester]
10 | 130 to 131 | E (5-10 μM = E) | 1 to 10 | OCc1csc(Nc2ccc(Oc3ccccc3)cn2)n1 [A10, [2-(5-phenoxy-pyridine-2-ylamino)-thiazole-4-yl]-methanol]
11 | – | D (fold activation: 1.2-5 μM = D) | > 10 | c1ccc(Sc2ccc(Nc3nccs3)nc2)cc1 [A12, (5-phenylsulfanyl-pyridine-2-yl)-thiazole-2-yl-amine]
12 | – | D (fold activation: 1.2-5 μM = D) | – | [O-][S+](c1ccccc1)c1ccc(Nc2nccs2)nc1 (centres unmarked) [A13, (5-phenylsulfinyl-pyridine-2-yl)-thiazole-2-yl-amine]
13 | – | D (fold activation: 1.2-5 μM = D) | > 10 | O=S(=O)(c1ccccc1)c1ccc(Nc2nccs2)nc1 [A14, (5-phenylsulfonyl-pyridine-2-yl)-thiazole-2-yl-amine]
14 | 140.6 to 140.9 | E (5-10 μM = E) | 1 to 10 | COCCOc1cc(Oc2ccccc2)cnc1Nc1nccs1 [A20, [3-(2-methoxy-ethoxy)-5-phenoxy-pyridine-2-yl]-thiazole-2-yl-amine]
15 | – | E (5-10 μM = E) | 0.01 to 1 | c1ccc(Oc2cnc(Nc3nccs3)c(OC3CCCC3)c2)cc1 [A21, (3-cyclopentyloxy-5-phenoxy-pyridine-2-yl)-thiazole-2-yl-amine]
16 | – | D (fold activation: 1.2-5 μM = D) | – | CCCOc1ccc(Nc2ccn(C)n2)nc1 [A23, (1-methyl-1H-pyrazole-3-yl)-(5-propoxy-pyridine-2-yl)-amine]
17 | – | E (5-10 μM = E) | 1 to 10 | COCC(C)Oc1cc(Oc2ccccc2)cnc1Nc1nccs1 (centres unmarked) [A28, [3-(2-Methoxy-1-methyl-ethoxy)-5-phenoxy-pyridine-2-yl]-thiazole-2-yl-amine]
18 | – | D (fold activation: 1.2-5 μM = D) | 0.01 to 1 | c1ccc(Oc2cnc(Nc3nccs3)c(OCC3CCCC3)c2)cc1 [A29, (3-cyclopentylmethoxy-5-phenoxy-pyridine-2-yl)-thiazole-2-yl-amine]
19 | – | D (fold activation: 1.2-5 μM = D) | – | c1ccc(COc2ccc(Nc3nccs3)nc2)cc1 [A30, (5-benzyloxy-pyridine-2-yl)-thiazole-2-yl-amine]
20 | – | E (5-10 μM = E) | – | COCCOc1cc(Oc2cccnc2)cnc1Nc1nccs1 [A31, [3-(2-methoxy-ethoxy)-5-(pyridine-3-yloxy)-pyridine-2-yl]-thiazole-2-yl-amine]
21 | – | E (5-10 μM = E) | 1 to 10 | COCCOc1cc(Oc2ccc(S(C)(=O)=O)cc2)cnc1Nc1nccs1 [A32, [5-(4-methanesulfonyl-phenoxy)-3-(2-methoxy-ethoxy)pyridine-2-yl]-thiazole-2-yl-amine]
22 | – | E (5-10 μM = E) | – | CS(=O)(=O)c1ccc(Oc2ccc(Nc3ccccn3)nc2)cc1 [A94]
23 | – | D (fold activation: 1.2-5 μM = D) | – | COCCOc1cc(Oc2ccccc2)cnc1Nc1cnccn1 [A95]
24 | – | D (fold activation: 1.2-5 μM = D) | – | COCCOc1cc(Oc2ccccc2)cnc1Nc1ccccn1 [A96]
25 | – | E (5-10 μM = E) | – | COCCOc1cc(Oc2ccccc2)cnc1Nc1ccn(C)n1 [A97]
